Some results are limits rather than exact numbers.

In experiment [1] the test system is Plasmodium falciparum. Nature of the experiment: Antimalarial activity against […] incubated for 72 hrs by DNA staining based MARK1 growth inhibition assay. Type of experiment: functional, organism-based.
For experiment [2], the system named is Plasmodium falciparum. Nature of the experiment: Antimalarial activity against chloroquine-sensitive Plasmodium falciparum 3D7 incubated for 72 hrs by DNA staining based MAR3D7 growth inhibition assay. Type of experiment: functional, organism-based. Particulars: 3D7, 72 h.
The subject of experiment [3] is HepG2. In words: Cytotoxicity against human HepG2 cells after 72 hrs by […] CellTiterGlo reagent assay. Type of experiment: cell-based. The conditions noted are these: HepG2, 72 h. (Alamar Blue is a resazurin reagent that responds to reducing activity.)
Experiment [4] deals with Raji. Nature of the experiment: Cytotoxicity against human Raji cells after 72 hrs by […] CellTiterGlo reagent assay. Type of experiment: cell-based.
Experiment [5] has as its system BJ. In words: Cytotoxicity against human BJ cells after 72 hrs by […] CellTiterGlo reagent assay. Type of experiment: cell-based.
Experiment [6] concerns HEK293. Nature of the experiment: Cytotoxicity against human HEK293 cells after 72 hrs by […] CellTiterGlo reagent assay. Type of experiment: cell-based. The conditions noted are these: HEK293, 72 h.

On to `CCOC(=O)CCCCCOc1cccc(CN(C(=O)c2ccc(-c3cccnc3)cc2)C(C)C)c1`, for which the EC50 in experiment [1] is above 15 µM; in experiment [2], above 15 µM; in experiment [3] it was above 26 µM; in experiment [4], above 26 µM; in experiment [5] it was above 26 µM; in experiment [6] it was above 26 µM.
As to `CCOC(=O)CCCCCOc1cccc(CN(C(=O)c2ccc(-c3cnc(OC)nc3OC)cc2)C(C)C)c1`, the EC50 is above 15 µM in experiment [1]; above 15 µM in experiment [2]; above 26 µM in experiment [3]; above 26 µM in experiment [4]; above 26 µM in experiment [5]; above 26 µM in experiment [6].
For the molecule `CCOC(=O)CCCCCOc1cccc(CN(C(=O)c2ccc(-c3ccoc3)cc2)C(C)C)c1`, the EC50 in experiment [1] is above 15 µM; in experiment [2] it was above 15 µM; in experiment [3], above 26 µM; in experiment [4], above 26 µM; in experiment [5], above 26 µM; in experiment [6], above 26 µM.
Take `CCOC(=O)CCCCCOc1cccc(CN(C(=O)c2ccc(-c3ccco3)cc2)C(C)C)c1`: the EC50 is above 15 µM in experiment [1]; above 15 µM in experiment [2]; above 26 µM in experiment [3]; above 26 µM in experiment [4]; above 26 µM in experiment [5]; above 26 µM in experiment [6].
For `CCOC(=O)CCCCCOc1cccc(CN(C(=O)c2ccc(-c3ccsc3)cc2)C(C)C)c1`, the 50% effective concentration (EC50) in experiment [1] was above 15 µM; in experiment [2], above 15 µM; in experiment [3], above 26 µM; in experiment [4] it was above 26 µM; in experiment [5], above 26 µM; in experiment [6], above 26 µM.
In the case of `CCOC(=O)CCCCCOc1cccc(CN(C(=O)c2ccc(-c3ccc(C(C)=O)s3)cc2)C(C)C)c1`, the half-maximal effective concentration (EC50) in experiment [1] is above 15 µM; in experiment [2], above 15 µM; in experiment [3] it was above 26 µM; in experiment [4], above 26 µM; in experiment [5], above 26 µM; in experiment [6], above 26 µM.
Consider `CCOC(=O)CCCCCOc1cccc(CN(C(=O)c2ccc(-c3cccc(-c4nnc(C)o4)c3)cc2)C(C)C)c1`, for which the EC50 in experiment [1] was above 15 µM; in experiment [2], above 15 µM; in experiment [3], above 26 µM; in experiment [4], above 26 µM; in experiment [5], above 26 µM; in experiment [6], above 26 µM.
Turning to `CCOC(=O)CCCCCOc1cccc(CN(C(=O)c2ccc(-c3ccc4[nH]ccc4c3)cc2)C(C)C)c1`, the half-maximal effective concentration (EC50) is above 15 µM in experiment [1]; above 15 µM in experiment [2]; above 26 µM in experiment [3]; above 26 µM in experiment [4]; above 26 µM in experiment [5]; above 26 µM in experiment [6].
Consider `CCOC(=O)CCCCCOc1cccc(CN(C(=O)c2ccc(-c3ccc4cc[nH]c4c3)cc2)C(C)C)c1`, for which the concentration giving a half-maximal response (EC50) is above 15 µM in experiment [1]; above 15 µM in experiment [2]; above 26 µM in experiment [3]; above 26 µM in experiment [4]; above 26 µM in experiment [5]; above 26 µM in experiment [6].
Turning to `CCOC(=O)CCCCCOc1cccc(CN(C(=O)c2ccc(-c3cn(S(=O)(=O)c4ccccc4)c4ccccc34)cc2)C(C)C)c1`, the EC50 in experiment [1] was above 15 µM; in experiment [2], above 15 µM; in experiment [3], above 26 µM; in experiment [4], above 26 µM; in experiment [5], above 26 µM; in experiment [6] it was above 26 µM.
On to `CCOC(=O)CCCCCOc1cccc(CN(C(=O)c2ccc(-c3cc4ccccc4n3S(=O)(=O)c3ccccc3)cc2)C(C)C)c1`, for which the EC50 is above 15 µM in experiment [1]; above 15 µM in experiment [2]; above 26 µM in experiment [3]; above 26 µM in experiment [4]; above 26 µM in experiment [5]; above 26 µM in experiment [6].
Regarding `CCOC(=O)CCCCCOc1cccc(CN(C(=O)c2ccc(-c3cccc(CC#N)c3)cc2)C(C)C)c1`, the concentration giving a half-maximal response (EC50) is above 15 µM in experiment [1]; above 15 µM in experiment [2]; above 26 µM in experiment [3]; above 26 µM in experiment [4]; above 26 µM in experiment [5]; above 26 µM in experiment [6].

In general, EC50 refers to the concentration needed to bring the measured effect to its halfway point. A high value points to a less potent agent.

The values above are taken from ChEMBL document CHEMBL2046380, “Synthesis and structure-activity relationship of disubstituted benzamides as a novel class of antimalarial agents” (Bioorg Med Chem Lett, 2012).
